From paper PMC12373995 (Nature Communications, 2025)
Peptide text beside a SMILES is read from it. * marks the point of attachment. Cbz = O=C(OCc1ccccc1)*

How the values were obtained:
ERα = target: T1, ERα (Homo sapiens, UniProt P03372); format: cell-based; conditions: MCF-7 and T47D, with Bufalin
T1 sequence (P03372 1-595): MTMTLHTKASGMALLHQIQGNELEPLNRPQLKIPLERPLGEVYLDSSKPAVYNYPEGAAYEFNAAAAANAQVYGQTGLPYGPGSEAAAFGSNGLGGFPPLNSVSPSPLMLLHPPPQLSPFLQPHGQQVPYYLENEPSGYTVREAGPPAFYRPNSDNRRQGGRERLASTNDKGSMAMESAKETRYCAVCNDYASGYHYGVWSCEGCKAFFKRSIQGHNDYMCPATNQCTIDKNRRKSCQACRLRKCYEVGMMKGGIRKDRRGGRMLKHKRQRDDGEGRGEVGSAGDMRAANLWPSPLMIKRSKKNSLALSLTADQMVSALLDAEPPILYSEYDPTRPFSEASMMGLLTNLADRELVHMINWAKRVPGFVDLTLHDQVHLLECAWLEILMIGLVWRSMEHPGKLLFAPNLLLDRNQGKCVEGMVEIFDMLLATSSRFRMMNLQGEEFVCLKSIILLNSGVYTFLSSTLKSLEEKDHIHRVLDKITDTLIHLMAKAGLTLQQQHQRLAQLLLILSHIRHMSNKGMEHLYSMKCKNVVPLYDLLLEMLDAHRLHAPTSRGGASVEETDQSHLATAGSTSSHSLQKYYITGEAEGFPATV

[1] = tested on: ERα transcriptional activity (ERE); assay: ERE-luciferase assay, MCF-7; format: cell-based, human; conditions: Fig. 3i, MCF-7 and T47D
ESR1 mRNA [2] = assay: Real-time PCR of ESR1 mRNA, MCF-7; format: cell-based, human; conditions: MCF-7, Supplementary Fig. 1a
ESR1 mRNA [3] = assay: Real-time PCR of ESR1 mRNA, T47D; format: cell-based, human; conditions: Supplementary Fig. 1b
MCF-7 cells = assay: CCK-8 cell viability, MCF-7; format: cell-based, human; conditions: MCF-7 and T47D, Supplementary Fig. 1e–g
[4] = tested on: Tamoxifen-resistant cells LCC2; assay: CCK-8 cell viability, LCC2; format: cell-based, human; conditions: LCC2, Fig. 7h, i
PARP and Bcl-2 = PARP and Bcl-2 by western blot, LCC2; format: cell-based, human; conditions: LCC2, 50 or 100 nM, 48 h
LCC2 xenografts = assay: Tamoxifen-resistant LCC2 xenografts in nude mice; format: in vivo
[5] = Serum markers of liver and kidney function in tumor-bearing mice; format: in vivo; conditions: therapeutic doses
[6] = tested on: Tamoxifen-resistant patient-derived organoids (PDOs); assay: Organoid live/dead staining; format: cell-based, human; conditions: PDO

| SMILES | Effect of co-treatment on Bufalin-induced ERα decrease (ERα) | Transcriptional activity of ERα (ERE luciferase) [1] | mRNA of ERα (ESR1 mRNA [2]) | mRNA of ERα (ESR1 mRNA [3]) | Anti-cancer effects compared with Fulvestrant (MCF-7 cells) | Anti-cancer effects compared with Fulvestrant [4] | Apoptosis markers PARP and Bcl-2 (PARP and Bcl-2) | ERα protein expression in tumors (LCC2 xenografts; IHC and western blot) | Anti-tumor activity compared with Fulvestrant (LCC2 xenografts; LCC2 xenografts) | Ki67 in tumors (IHC) (LCC2 xenografts; LCC2 xenografts) | Tumor volumes and weights (LCC2 xenografts; intraperitoneal injection) | Toxicity by serum liver and kidney markers [5] | Cell death by Calcein-AM/PI staining [6] |
| --- | --- | --- | --- | --- | --- | --- | --- | --- | --- | --- | --- | --- | --- |
| NS(=O)(=O)OC[C@@H]1C[C@@H](n2ccc3c(N[C@H]4CCc5ccccc54)ncnc32)C[C@@H]1O [MLN4924] | reversed the Bufalin-mediated downregulation of ERα |  |  |  |  |  |  |  |  |  |  |  |  |
| CC(C)C[C@@H](C=O)NC(=O)[C@H](CC(C)C)NC(=O)[C@H](CC(C)C)NC(=O)OCc1ccccc1 [MG-132] (Cbz-Leu-Leu-Leu-aldehyde) | effectively prevented the Bufalin-induced decrease in ERα protein levels |  |  |  |  |  |  |  |  |  |  |  |  |
| C[C@]12CC[C@H](O)C[C@H]1CC[C@@H]1[C@@H]2CC[C@]2(C)[C@@H](c3ccc(=O)oc3)CC[C@]12O [Bufalin] |  | weakened the transcriptional activity of ERα | no obvious change | no obvious change | stronger anti-cancer effects than Fulvestrant | better anti-cancer effects than Fulvestrant | PARP cleavage, and Bcl-2 downregulation | the protein expression of ERα was decreased | superior anti-tumor activity to Fulvestrant | marked Ki67 suppression | the tumor volumes and weights significantly decreased | no significant signs of drug-induced toxicity | extensive cell death |
